Results from ChEMBL document CHEMBL5096175, “An insight into the medicinal attributes of berberine derivatives: A review” (Bioorg Med Chem, 2021).
Converted amounts (≈) assume the structure as drawn.

What was measured:
Chitinase B = Chitinase B (Serratia marcescens, UniProt P11797); assay: Inhibition of Serratia marcescens chitinase B expressed in Escherichia coli BL21(DE3) cells using MU-(GlcNAc)2 as a substrate assessed as inhibition constant incubated for 25 mins by dixon plot analysis
Staphylococcus aureus [1] = assay: Antibacterial activity against methicillin-resistant Staphylococcus aureus assessed as inhibition of bacterial growth incubated for 24 hrs by CLSI based broth microdilution method; assay type: functional
Candida albicans = assay: Antifungal activity against Candida albicans ATCC 90023 assessed as inhibition of fungal growth incubated for 24 hrs; assay type: functional
Pseudomonas aeruginosa [2] = assay: Antibacterial activity against Pseudomonas aeruginosa 27853 assessed as inhibition of bacterial growth incubated for 24 hrs by CLSI based broth microdilution method; assay type: functional
Candida parapsilosis = assay: Antifungal activity against Candida parapsilosis ATCC 22019 assessed as inhibition of fungal growth incubated for 24 hrs; assay type: functional; details: Lodderomyces parapsilosis
Escherichia coli [3] = assay: Antibacterial activity against Escherichia coli assessed as inhibition of bacterial growth incubated for 24 hrs by micro broth dilution method; assay type: functional
[4] = Antioxidant activity assessed as ABTS radical scavenging activity incubated for 10 mins by UV spectrophotometeric analysis; assay type: functional
Ca-Ski = assay: Anticancer activity against human Ca-Ski cells assessed as cell growth inhibition incubated for 48 hrs by SRB assay; assay type: functional, cell-based
HeLa [5] = assay: Anticancer activity against human HeLa cells assessed as cell growth inhibition incubated for 48 hrs by SRB assay; assay type: functional, cell-based
[6] = Antioxidant activity assessed as DPPH radical scavenging activity measured after 25 mins by UV visible spectrophotometeric analysis; assay type: functional
Escherichia coli [7] = assay: Antibacterial activity against Escherichia coli CICC 10389 assessed as inhibition of bacterial growth incubated for 24 hrs by broth microdilution method; assay type: functional
Clostridium perfringens = assay: Antibacterial activity against Clostridium perfringens CICC 22949 assessed as inhibition of bacterial growth incubated for 24 hrs by broth microdilution method; assay type: functional
Staphylococcus aureus [8] = assay: Antibacterial activity against Staphylococcus aureus CICC 23656 assessed as inhibition of bacterial growth incubated for 24 hrs by broth microdilution method; assay type: functional
Streptococcus pyogenes = assay: Antibacterial activity against Streptococcus pyogenes CICC 10356 assessed as inhibition of bacterial growth incubated for 24 hrs by broth microdilution method; assay type: functional
Shigella dysenteriae = assay: Antibacterial activity against Shigella dysenteriae CICC 23829 assessed as inhibition of bacterial growth incubated for 24 hrs by broth microdilution method; assay type: functional
Staphylococcus aureus [9] = assay: Antibacterial activity against methicillin-resistant Staphylococcus aureus ATCC 700699 assessed as inhibition of bacterial growth incubated for 24 hrs by broth microdilution method; assay type: functional
Salmonella enteritidis = assay: Antibacterial activity against Salmonella enteritidis CICC 24119 assessed as inhibition of bacterial growth incubated for 24 hrs by broth microdilution method; assay type: functional, Salmonella enterica subsp. enterica serovar Enteritidis; details: Salmonella enterica
Pseudomonas aeruginosa [10] = assay: Antibacterial activity against Pseudomonas aeruginosa CICC 10419 assessed as inhibition of bacterial growth incubated for 24 hrs by broth microdilution method; assay type: functional
HeLa [11] = assay: Cytotoxicity against human HeLa cells assessed as inhibition of cell proliferation incubated for 24 hrs by MTT assay; assay type: functional, cell-based
MCF7 [12] = assay: Cytotoxicity against human MCF7 cells assessed as inhibition of cell proliferation incubated for 24 hrs by MTT assay; assay type: functional, cell-based; details: MCF7, 24 h
HepG2 = assay: Cytotoxicity against human HepG2 cells assessed as inhibition of cell proliferation incubated for 24 hrs by MTT assay; assay type: functional, cell-based; details: HepG2, 24 h
A549 [13] = assay: Cytotoxicity against human A549 cells assessed as inhibition of cell proliferation incubated for 24 hrs by MTT assay; assay type: functional, cell-based; details: A549, 24 h
PC-12 = assay: Cytotoxicity against […] cells assessed as inhibition of cell proliferation incubated for 24 hrs by MTT assay; assay type: functional, cell-based; details: Rattus norvegicus, PC-12, 24 h
[14] = molecular target: Histone acetyltransferase p300 (Homo sapiens, UniProt Q09472); assay: Inhibition of N-terminal His/GST-tagged recombinant human p300 HAT domain (965 to 1810 residues) expressed in Sf9 insect cells using isotope labelled 3H-Ac-CoA as substrate incubated for 60 mins by microbeta counter based analysis
Chain of Histone acetyltransferase p300 (Q09472 whole entry, the tested form may be a part): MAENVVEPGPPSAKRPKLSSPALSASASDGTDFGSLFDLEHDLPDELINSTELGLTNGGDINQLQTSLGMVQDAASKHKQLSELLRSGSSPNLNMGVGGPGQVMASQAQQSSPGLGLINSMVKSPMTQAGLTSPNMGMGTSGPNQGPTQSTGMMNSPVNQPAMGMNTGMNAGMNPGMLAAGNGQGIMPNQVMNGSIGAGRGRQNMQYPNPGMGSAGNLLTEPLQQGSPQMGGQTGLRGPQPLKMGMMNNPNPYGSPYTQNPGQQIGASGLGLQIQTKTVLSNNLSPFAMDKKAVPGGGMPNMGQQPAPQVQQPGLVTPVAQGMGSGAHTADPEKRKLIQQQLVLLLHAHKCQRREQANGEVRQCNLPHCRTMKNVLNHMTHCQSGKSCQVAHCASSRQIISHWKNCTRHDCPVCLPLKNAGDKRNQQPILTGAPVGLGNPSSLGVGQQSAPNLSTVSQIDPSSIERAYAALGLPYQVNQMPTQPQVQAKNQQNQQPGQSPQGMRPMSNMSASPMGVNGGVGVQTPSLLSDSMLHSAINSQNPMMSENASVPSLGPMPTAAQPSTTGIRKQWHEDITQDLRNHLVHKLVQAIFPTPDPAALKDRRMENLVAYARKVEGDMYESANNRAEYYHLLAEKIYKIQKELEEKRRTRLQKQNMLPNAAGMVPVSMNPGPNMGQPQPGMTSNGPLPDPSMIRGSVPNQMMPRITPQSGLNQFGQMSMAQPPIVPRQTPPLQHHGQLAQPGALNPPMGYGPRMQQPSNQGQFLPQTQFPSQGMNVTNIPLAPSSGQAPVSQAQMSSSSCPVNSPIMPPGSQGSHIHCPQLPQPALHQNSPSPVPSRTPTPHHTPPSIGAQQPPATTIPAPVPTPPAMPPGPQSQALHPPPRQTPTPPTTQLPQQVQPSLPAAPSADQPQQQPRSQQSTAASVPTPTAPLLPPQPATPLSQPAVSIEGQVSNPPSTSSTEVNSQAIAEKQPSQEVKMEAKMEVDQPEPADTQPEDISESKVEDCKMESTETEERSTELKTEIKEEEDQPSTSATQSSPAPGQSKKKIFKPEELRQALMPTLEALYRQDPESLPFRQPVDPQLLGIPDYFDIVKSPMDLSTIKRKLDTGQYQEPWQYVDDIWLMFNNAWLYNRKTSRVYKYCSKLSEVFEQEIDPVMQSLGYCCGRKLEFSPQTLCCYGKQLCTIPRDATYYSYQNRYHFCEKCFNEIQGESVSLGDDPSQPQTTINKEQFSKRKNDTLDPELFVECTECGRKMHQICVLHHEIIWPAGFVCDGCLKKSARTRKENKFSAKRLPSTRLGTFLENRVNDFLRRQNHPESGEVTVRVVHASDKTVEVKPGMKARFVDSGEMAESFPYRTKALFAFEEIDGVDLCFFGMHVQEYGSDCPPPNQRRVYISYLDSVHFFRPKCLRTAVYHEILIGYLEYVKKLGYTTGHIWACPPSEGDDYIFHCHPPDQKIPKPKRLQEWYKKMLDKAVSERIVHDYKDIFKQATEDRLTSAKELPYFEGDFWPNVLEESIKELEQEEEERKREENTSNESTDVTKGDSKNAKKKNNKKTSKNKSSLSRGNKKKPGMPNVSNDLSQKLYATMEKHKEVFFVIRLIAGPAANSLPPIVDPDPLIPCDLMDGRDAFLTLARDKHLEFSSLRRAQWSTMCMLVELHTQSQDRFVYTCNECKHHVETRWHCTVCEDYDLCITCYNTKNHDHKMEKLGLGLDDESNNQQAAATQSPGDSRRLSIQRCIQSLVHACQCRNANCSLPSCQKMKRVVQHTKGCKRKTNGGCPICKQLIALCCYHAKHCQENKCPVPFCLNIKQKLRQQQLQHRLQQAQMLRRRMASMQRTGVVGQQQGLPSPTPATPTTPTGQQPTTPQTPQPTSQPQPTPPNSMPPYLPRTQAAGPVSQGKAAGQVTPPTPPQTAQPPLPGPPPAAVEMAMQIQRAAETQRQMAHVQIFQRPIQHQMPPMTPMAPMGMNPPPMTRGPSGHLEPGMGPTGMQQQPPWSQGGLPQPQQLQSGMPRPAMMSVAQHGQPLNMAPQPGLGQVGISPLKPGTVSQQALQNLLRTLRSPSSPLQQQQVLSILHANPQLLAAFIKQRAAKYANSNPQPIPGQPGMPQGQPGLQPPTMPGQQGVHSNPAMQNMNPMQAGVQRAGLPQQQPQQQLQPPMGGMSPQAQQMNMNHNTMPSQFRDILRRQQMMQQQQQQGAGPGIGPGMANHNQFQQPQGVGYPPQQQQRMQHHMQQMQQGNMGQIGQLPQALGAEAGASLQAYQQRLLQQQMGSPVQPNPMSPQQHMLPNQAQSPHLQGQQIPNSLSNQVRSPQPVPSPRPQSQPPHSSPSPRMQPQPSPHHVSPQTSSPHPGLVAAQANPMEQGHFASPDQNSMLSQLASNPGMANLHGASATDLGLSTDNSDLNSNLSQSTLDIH

Vibrio cholerae = assay: Antibacterial activity against Vibrio cholerae by serial dilution method; assay type: functional
Brucella abortus = assay: Antibacterial activity against Brucella abortus by serial dilution method; assay type: functional
[15] = Cytotoxicity against MDCK cells incubated for 48 hrs by SRB bioassay; assay type: toxicity, cell-based, Canis lupus familiaris; details: dog
[16] = Therapeutic index, ratio of CC50 for cytotoxicity against MDCK cells to IC50 for antiviral activity against influenza virus A A/PR/8/34; assay type: toxicity, cell-based; details: dog, read-out: TI
Influenza A virus = assay: Antiviral activity against influenza virus A A/PR/8/34 infected in MDCK cells assessed as inhibition of virus-induced cytopathic effect measured after 48 hrs by SRB bioassay; assay type: functional, organism-based; details: A/PR/8/34, MDCK
HEK-293T = assay: Antiinflammatory activity against HEK-293T cells assessed as inhibition of TNF-alpha induced NF-kappaB activation at 5 uM preincubated for 2 hrs followed by TNFalpha stimulation for 6 hrs by dual-luciferase reporter assay relative to control; assay type: functional; details: Homo sapiens, time 8 hrs
HeLa [17] = assay: Antiproliferative activity against human HeLa cells assessed as inhibition of cell growth incubated for 72 hrs by MTT assay; assay type: functional, cell-based
A549 [18] = assay: Antiproliferative activity against human A549 cells assessed as inhibition of cell growth incubated for 72 hrs by MTT assay; assay type: functional, cell-based; details: A549, 72 h
HCT-8 = assay: Antiproliferative activity against human HCT-8 cells assessed as inhibition of cell growth incubated for 72 hrs by MTT assay; assay type: functional, cell-based; details: HCT-8, 72 h
Bel-7402 = assay: Antiproliferative activity against human Bel-7402 cells assessed as inhibition of cell growth incubated for 72 hrs by MTT assay; assay type: functional, cell-based; details: Bel-7402, 72 h
Acetylcholinesterase = Acetylcholinesterase (Homo sapiens, UniProt P22303); assay: Inhibition of acetylcholinesterase (unknown origin) using acetylthiocholine iodide as substrate incubated for 10 mins by Ellman's colorimetric method
Chain of Acetylcholinesterase (P22303 whole entry): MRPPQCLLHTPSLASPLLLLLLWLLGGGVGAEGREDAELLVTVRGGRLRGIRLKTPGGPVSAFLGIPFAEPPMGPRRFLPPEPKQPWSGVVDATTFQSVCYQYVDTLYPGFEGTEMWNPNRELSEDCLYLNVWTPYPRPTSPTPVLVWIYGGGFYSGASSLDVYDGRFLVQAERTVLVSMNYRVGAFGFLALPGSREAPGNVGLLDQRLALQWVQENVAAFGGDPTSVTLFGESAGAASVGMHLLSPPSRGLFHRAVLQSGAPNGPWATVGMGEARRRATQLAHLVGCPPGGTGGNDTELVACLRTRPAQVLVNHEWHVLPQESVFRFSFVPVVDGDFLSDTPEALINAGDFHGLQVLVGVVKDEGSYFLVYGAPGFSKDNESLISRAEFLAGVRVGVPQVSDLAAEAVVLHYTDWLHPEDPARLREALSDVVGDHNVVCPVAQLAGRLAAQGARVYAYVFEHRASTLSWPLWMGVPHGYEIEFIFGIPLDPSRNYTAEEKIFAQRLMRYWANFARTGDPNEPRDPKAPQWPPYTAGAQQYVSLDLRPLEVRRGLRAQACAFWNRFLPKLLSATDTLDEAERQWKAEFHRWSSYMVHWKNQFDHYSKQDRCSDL

MCF7 [19] = assay: Antiproliferative activity against human MCF7 cells incubated for 24 hrs by MTT assay; assay type: functional, cell-based; details: MCF7, 24 h

Chain of Chitinase B (P11797 whole entry): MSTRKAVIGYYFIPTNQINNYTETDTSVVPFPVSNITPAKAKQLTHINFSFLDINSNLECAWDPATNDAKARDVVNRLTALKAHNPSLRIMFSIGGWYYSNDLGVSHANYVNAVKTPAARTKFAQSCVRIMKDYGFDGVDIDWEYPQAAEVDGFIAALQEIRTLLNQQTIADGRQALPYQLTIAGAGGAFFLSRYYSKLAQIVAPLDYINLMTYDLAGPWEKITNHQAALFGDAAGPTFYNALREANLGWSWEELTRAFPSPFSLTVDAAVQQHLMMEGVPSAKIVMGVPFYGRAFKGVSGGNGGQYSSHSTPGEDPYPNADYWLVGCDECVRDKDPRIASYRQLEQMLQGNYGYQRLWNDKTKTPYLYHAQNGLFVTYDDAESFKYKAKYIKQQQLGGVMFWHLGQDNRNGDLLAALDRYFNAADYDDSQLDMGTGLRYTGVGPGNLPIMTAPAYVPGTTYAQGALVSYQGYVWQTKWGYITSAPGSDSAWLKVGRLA

SMILES: COc1ccc2cc3[n+](cc2c1OC(=O)c1ccccc1)CCc1cc2c(cc1-3)OCO2
- Ki (Chitinase B): 0.15 µM

SMILES: CCCCOc1c(OC)cc(/C=C2\SC(=O)NC2=O)c2c1CN1CCc3cc4c(cc3C1C2)OCO4 (stereo not given)
- MIC (Staphylococcus aureus [1]): 8 µM (≈ 4.07 µg/mL)
- MIC (Candida albicans): 16 µM (≈ 8.14 µg/mL)
- MIC (Pseudomonas aeruginosa [2]): 8 µM (≈ 4.07 µg/mL)
- MIC (Candida parapsilosis): 8 µM (≈ 4.07 µg/mL)

SMILES: COc1cc(/C=C(\C#N)n2cc([N+](=O)[O-])nc2C)c2c(c1OCc1ccccc1F)CN1CCc3cc4c(cc3C1C2)OCO4 (stereo not given)
- MIC (Escherichia coli [3]): 3 µM (≈ 1.83 µg/mL)

SMILES: COc1ccc2cc3[n+](cc2c1OCCCCCn1c(C)cc2ccccc21)CCc1cc2c(cc1-3)OCO2.[Cl-]
- IC50 [4]: 9.09 µM
- IC50 (Ca-Ski): 6.32 µg/mL
- IC50 (HeLa [5]): 7.21 µg/mL
- IC50 [6]: 19.9 µM

SMILES: COc1ccc2cc3[n+](cc2c1OCc1ccc(C(F)(F)F)cc1)CCc1cc2c(cc1-3)OCO2
- MIC (Escherichia coli [7]): 0.82 µM
- MIC (Clostridium perfringens): 0.82 µM
- MIC (Staphylococcus aureus [8]): 0.82 µM
- MIC (Streptococcus pyogenes): 0.82 µM
- MIC (Shigella dysenteriae): 0.82 µM
- MIC (Staphylococcus aureus [9]): 0.82 µM
- MIC (Salmonella enteritidis): 0.82 µM
- MIC (Pseudomonas aeruginosa [10]): 0.82 µM

SMILES: CCCCCC/C=C\C/C=C/C(=O)NCCCCCCOc1c(OC)ccc2cc3[n+](cc12)CCc1cc2c(cc1-3)OCO2
- IC50 (HeLa [11]): 3.82 µM
- IC50 (MCF7 [12]): 3.91 µM
- IC50 (HepG2): 4.42 µM
- IC50 (A549 [13]): 3.25 µM
- IC50 (PC-12): 3.77 µM

SMILES: COc1cc2cc3[n+](cc2cc1OC)CCCc1cc2c(cc1-3)OCO2
- IC50 [14]: 1.8 µM

SMILES: COc1cc(C=C(C#N)C#N)c2cc3[n+](cc2c1O)CCc1cc2c(cc1-3)OCO2.[Cl-]
- MIC (Vibrio cholerae): 64 µg/mL
- MIC (Brucella abortus): 64 µg/mL

SMILES: COc1ccc(N2CCN(CCCCCOc3c(OC)ccc4cc5[n+](cc34)CCc3cc4c(cc3-5)OCO4)CC2)c(OC)c1.[Cl-]
- CC50 at 48 h [15]: 3890 µg/mL
- selectivity ratio [16]: 111
- IC50 (Influenza A virus): 35.2 µg/mL

SMILES: COc1ccc2cc3[n+](cc2c1OS(=O)(=O)c1ccc(C(F)(F)F)cc1)CCc1cc2c(cc1-3)OCO2
- inhibition at 5 µM (HEK-293T): > 90%

SMILES: COCCCCC(=O)Oc1c(OC)ccc2cc3[n+](cc12)CCc1cc2c(cc1-3)OCO2
- Ki (Chitinase B): 0.15 µM

SMILES: CCCCCN(CCCCC)c1cc(OC)c(OC)c2c1CC1c3cc4c(cc3CCN1C2)OCO4 (stereo not given)
- IC50 (HeLa [17]): 9.74 µM
- IC50 (A549 [18]): 9.74 µM
- IC50 (HCT-8): 9.74 µM
- IC50 (Bel-7402): 9.74 µM

SMILES: COc1ccc2cc3[n+](cc2c1OC(=O)C1(C)CCCCC1)CCc1cc2c(cc1-3)OCO2
- inhibition at 5 µM (HEK-293T): > 90%

SMILES: Oc1cc2c(cc1O)-c1cc3ccc(O)c(O)c3c[n+]1CC2
- IC50 (Acetylcholinesterase): 2.3 µM

SMILES: COc1cc(CC2C(=O)C(C)C(=O)C(C)C2=O)c2cc3[n+](cc2c1O)CCc1cc2c(cc1-3)OCO2.[Cl-] (stereo not given)
- MIC (Vibrio cholerae): 64 µg/mL
- MIC (Brucella abortus): 64 µg/mL

SMILES: CCCCCCCCCOc1c(OC)ccc2cc3[n+](cc12)CCc1cc2c(cc1-3)OCO2
- IC50 (MCF7 [19]): 4.87 µM
